Test results: ChEMBL document CHEMBL3991601, “The target landscape of clinical kinase drugs” (Science, 2017)
Active and inactive are the calls of the source. Rule as the data show it, for most assays here: actives have a measured Kd and inactives only a lower limit.

Experiments:
[1] = target: T1, Calcium/calmodulin-dependent protein kinase type IV (Homo sapiens, UniProt Q16566)
T1 sequence (Q16566 whole entry): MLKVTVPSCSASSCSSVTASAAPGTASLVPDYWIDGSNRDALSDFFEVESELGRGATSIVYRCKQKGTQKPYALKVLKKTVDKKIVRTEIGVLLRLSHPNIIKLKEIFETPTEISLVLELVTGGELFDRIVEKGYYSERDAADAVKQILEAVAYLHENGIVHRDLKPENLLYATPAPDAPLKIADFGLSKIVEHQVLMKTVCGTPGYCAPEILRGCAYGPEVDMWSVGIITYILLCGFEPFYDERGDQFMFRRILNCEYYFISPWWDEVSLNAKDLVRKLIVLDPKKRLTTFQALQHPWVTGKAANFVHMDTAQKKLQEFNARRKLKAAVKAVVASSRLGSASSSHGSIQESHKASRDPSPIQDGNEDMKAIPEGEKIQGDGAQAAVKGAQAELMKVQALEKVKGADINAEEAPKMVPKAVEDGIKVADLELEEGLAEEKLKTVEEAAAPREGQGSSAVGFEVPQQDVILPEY

dCTP pyrophosphatase 1 = target: T2, dCTP pyrophosphatase 1 (Homo sapiens, UniProt Q9H773)
T2 sequence (Q9H773 whole entry): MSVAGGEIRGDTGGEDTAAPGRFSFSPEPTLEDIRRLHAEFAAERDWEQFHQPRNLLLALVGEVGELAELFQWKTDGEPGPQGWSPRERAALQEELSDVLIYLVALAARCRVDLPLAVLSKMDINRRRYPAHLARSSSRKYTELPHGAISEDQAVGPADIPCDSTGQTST

Ephrin type-B receptor 4 = target: T3, Ephrin type-B receptor 4 (Homo sapiens, UniProt P54760)
T3 sequence (P54760 whole entry): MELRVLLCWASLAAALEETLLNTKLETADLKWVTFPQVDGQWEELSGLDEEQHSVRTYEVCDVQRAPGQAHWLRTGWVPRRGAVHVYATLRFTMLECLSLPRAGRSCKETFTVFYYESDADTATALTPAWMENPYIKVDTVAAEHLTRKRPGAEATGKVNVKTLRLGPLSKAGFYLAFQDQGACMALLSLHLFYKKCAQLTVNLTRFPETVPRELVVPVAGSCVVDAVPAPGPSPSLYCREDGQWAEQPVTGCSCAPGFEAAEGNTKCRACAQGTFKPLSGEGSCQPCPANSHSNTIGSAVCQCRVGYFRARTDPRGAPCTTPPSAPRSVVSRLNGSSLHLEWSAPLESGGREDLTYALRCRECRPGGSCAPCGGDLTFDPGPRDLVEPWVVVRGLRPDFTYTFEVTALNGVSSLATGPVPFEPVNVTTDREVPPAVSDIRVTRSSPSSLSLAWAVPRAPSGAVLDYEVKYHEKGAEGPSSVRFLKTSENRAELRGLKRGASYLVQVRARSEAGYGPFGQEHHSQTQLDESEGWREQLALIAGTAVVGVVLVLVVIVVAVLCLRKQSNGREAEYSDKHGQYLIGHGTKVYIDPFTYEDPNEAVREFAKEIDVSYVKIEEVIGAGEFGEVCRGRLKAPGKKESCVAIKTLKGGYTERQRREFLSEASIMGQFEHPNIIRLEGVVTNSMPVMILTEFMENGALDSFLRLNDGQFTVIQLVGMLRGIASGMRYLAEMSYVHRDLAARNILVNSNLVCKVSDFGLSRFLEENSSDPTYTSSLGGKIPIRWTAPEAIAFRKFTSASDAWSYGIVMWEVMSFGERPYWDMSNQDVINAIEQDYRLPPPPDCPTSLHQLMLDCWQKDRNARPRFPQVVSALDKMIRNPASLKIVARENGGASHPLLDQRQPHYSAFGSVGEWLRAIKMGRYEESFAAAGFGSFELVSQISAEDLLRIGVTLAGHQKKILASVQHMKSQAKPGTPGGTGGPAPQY

[2] = target: T4, Bifunctional phosphoribosylaminoimidazole carboxylase/phosphoribosylaminoimidazole succinocarboxamide synthetase (Homo sapiens, UniProt P22234)
T4 sequence (P22234 whole entry): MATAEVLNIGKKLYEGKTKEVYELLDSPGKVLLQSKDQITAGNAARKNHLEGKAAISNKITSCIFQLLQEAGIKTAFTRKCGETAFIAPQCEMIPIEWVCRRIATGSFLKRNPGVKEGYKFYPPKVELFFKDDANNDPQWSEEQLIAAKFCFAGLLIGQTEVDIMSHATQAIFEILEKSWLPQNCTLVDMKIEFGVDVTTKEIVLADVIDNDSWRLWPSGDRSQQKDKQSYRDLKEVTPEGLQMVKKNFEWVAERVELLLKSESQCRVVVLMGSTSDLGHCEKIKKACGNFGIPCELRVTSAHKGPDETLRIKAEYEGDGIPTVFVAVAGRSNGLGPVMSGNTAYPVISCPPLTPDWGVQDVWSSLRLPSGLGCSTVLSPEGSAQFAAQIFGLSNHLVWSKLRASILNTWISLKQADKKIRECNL

[3] = target: T5, General transcription and DNA repair factor IIH helicase subunit XPD (Homo sapiens, UniProt P18074); conditions: read-out: Kd apparent; k-562, colo 205, sk-n-be(2) and mv-4-11
T5 sequence (P18074 whole entry): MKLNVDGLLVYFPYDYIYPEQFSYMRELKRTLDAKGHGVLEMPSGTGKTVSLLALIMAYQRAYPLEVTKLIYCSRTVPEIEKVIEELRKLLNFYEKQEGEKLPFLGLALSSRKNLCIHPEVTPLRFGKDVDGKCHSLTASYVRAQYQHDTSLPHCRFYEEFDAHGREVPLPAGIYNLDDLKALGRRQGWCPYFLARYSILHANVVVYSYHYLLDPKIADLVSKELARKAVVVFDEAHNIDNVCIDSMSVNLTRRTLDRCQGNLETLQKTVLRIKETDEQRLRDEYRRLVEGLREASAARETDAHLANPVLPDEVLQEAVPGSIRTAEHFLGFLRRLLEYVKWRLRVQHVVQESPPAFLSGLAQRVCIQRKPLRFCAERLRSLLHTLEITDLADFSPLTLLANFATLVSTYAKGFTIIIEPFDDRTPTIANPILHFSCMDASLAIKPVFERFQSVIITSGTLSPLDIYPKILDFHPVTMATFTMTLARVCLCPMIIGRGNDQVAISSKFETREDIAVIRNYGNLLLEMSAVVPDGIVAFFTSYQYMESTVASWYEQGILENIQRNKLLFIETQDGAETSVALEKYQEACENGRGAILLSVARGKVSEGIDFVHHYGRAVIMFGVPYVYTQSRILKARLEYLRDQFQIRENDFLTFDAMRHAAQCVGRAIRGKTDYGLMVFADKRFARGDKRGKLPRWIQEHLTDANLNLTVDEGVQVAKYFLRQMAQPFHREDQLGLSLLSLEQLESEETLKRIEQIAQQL
Also: in the data inactive means no Kd found up to 30 µM.

Row | SMILES | Kd [1] | Kd (dCTP pyrophosphatase 1) | Kd (Ephrin type-B receptor 4) | Kd [2] | Kd [3]
1 | Cc1cc(-c2cc(OC(=O)c3ccccc3)ccc2Cl)cc2nnc(Nc3ccc(OCCN4CCCC4)cc3)nc12 [TG100-801] | > 30 µM (inactive) | > 30 µM (inactive) | 0.711 µM (active) | > 30 µM (inactive) | > 30 µM (inactive)
2 | O=C(NOC[C@H](O)CO)c1ccc(F)c(F)c1Nc1ccc(I)cc1F [MIRDAMETINIB] | > 30 µM (inactive) | > 30 µM (inactive) | > 30 µM (inactive) | > 30 µM (inactive) | > 30 µM (inactive)
3 | Cc1cc(C(=O)Nc2cc(Oc3ccc4nc(NC(=O)C5CC5)cn4n3)ccc2C)n(C)n1 [TAK-593] | > 30 µM (inactive) | > 30 µM (inactive) | > 30 µM (inactive) | > 30 µM (inactive) | > 30 µM (inactive)
4 | NC[C@@](O)(c1ccc(Cl)cc1)c1ccc(-c2cn[nH]c2)cc1 [AT-13148] | > 30 µM (inactive) | > 30 µM (inactive) | > 30 µM (inactive) | > 30 µM (inactive) | > 30 µM (inactive)
5 | Cc1c(NC(=O)OC[C@@H]2COCCN2)cn2ncnc(Nc3ccc4c(cnn4Cc4cccc(F)c4)c3)c12 [AC-480] | > 30 µM (inactive) | > 30 µM (inactive) | > 30 µM (inactive) | > 30 µM (inactive) | > 30 µM (inactive)
6 | C=CCN(/C=C1/C(=O)O[C@H](COC)[C@@]2(C)C1=C(O)C(=O)C1=C2[C@H](OC(C)=O)C[C@]2(C)C(=O)CC[C@@H]12)CC=C [SONOLISIB] | > 30 µM (inactive) | > 30 µM (inactive) | > 30 µM (inactive) | > 30 µM (inactive) | > 30 µM (inactive)
7 | COc1cc(Nc2ncc(F)c(Nc3ccc4c(n3)N(COP(=O)(O)O)C(=O)C(C)(C)O4)n2)cc(OC)c1OC [FOSTAMATINIB] | > 30 µM (inactive) | > 30 µM (inactive) | > 30 µM (inactive) | > 30 µM (inactive) | > 30 µM (inactive)
8 | C[C@@H]1COC(Nc2ccc3ncnc(Nc4ccc(OCc5nccs5)c(Cl)c4)c3c2)=N1 [VARLITINIB] | > 30 µM (inactive) | > 30 µM (inactive) | > 30 µM (inactive) | > 30 µM (inactive) | > 30 µM (inactive)
9 | COCCN1CCN(Cc2ccc(-c3n[nH]c4c3C(=O)c3c(NC(=O)NN5CCOCC5)cccc3-4)cc2)CC1 [RGB-286638] | > 30 µM (inactive) | > 30 µM (inactive) | > 30 µM (inactive) | > 30 µM (inactive) | 0.456 µM (active)
10 | CNC(=O)c1ccc(Nc2ncc(C(F)(F)F)c(NCc3nccnc3N(C)S(C)(=O)=O)n2)cc1 [DEFACTINIB] | > 30 µM (inactive) | > 30 µM (inactive) | > 30 µM (inactive) | > 30 µM (inactive) | 2.26 µM (active)
11 | C=CC(=O)Nc1cccc(Nc2nc(Nc3ccc(N4CCN(C(C)=O)CC4)cc3OC)ncc2C(F)(F)F)c1 [ROCILETINIB] | > 30 µM (inactive) | > 30 µM (inactive) | > 30 µM (inactive) | > 30 µM (inactive) | > 30 µM (inactive)
12 | Cc1ccc(C(=O)Nc2ccc(Oc3cc4cnn(C)c4cc3-c3cn[nH]c3)c(F)c2)c(=O)n1-c1ccc(F)cc1 [MERESTINIB] | 3.26 µM (active) | > 30 µM (inactive) | > 30 µM (inactive) | > 30 µM (inactive) | > 30 µM (inactive)
13 | O=C(O)c1ccc2c(c1)nc(Nc1cccc(Cl)c1)c1ccncc12 [SILMITASERTIB] | > 30 µM (inactive) | > 30 µM (inactive) | > 30 µM (inactive) | > 30 µM (inactive) | > 30 µM (inactive)
14 | Cc1c(Cn2c(C)nc3c(C(=O)O)cc(N4CCOCC4)cc32)cccc1C(F)(F)F [GSK-2636771] | > 30 µM (inactive) | > 30 µM (inactive) | > 30 µM (inactive) | > 30 µM (inactive) | > 30 µM (inactive)
15 | Cn1cc(-c2[nH]c3cc(NC(=O)[C@H](N)C4CCCCC4)cc4c3c2C=NNC4=O)cn1 | > 30 µM (inactive) | > 30 µM (inactive) | > 30 µM (inactive) | > 30 µM (inactive) | > 30 µM (inactive)
